# Entries after “also recorded” stand apart in the source; their conditions may differ. Structures can show the parent of a compound that is named as a salt.
# Tests used:
# [1] = system: AKT phosphorylation at S473 (pAKT); experiment: Immunoblot of AKT phosphorylation in HASMCs; type: cell-based, human
# Description: Isolation and culture of HASMC. Human lungs were received from the National Disease Research Interchange (Philadelphia, PA, USA) and from the International Institute for the Advancement of Medicine (Edison, NJ, USA) and HASM cells were derived from the tracheas. […] Culture of HASM cells was conducted as described previously (Panettieri et al., 1989a). Briefly, cells were cultured in Ham's F-12 medium supplemented with 100 U mL^−1 penicillin, 0.1 mg mL^−1, streptomycin, 2.5 mg mL^−1 amphotericin B and 10% FBS. Medium was replaced every 72 hours. HASM cells were only used during subculture passages 1-4 due to the strong expression of native contractile proteins (Panettieri et al., 1989b). In pertussis toxin studies, cells were treated with 1 μg/ml of pertussis toxin for 18 hours. […]
# Immunoblot analysis. […] Phosphorylation of MYPT1, MLC and AKT were assessed, and band densities were normalized to GAPDH, total MYPT1, total MLC, or total AKT band density.
# Statistical analysis. […] For experiments comparing agonist responses in primary cells, conditions were all normalized to the basal condition and subsequently analyzed statistically. GraphPad Prism software (La Jolla, CA, USA) was used to determine statistical significance evaluated by Student's unpaired t-test for two groups or ANOVA with Bonferroni post-test for 3 or more groups. […]
# [2] = system: isoproterenol-mediated cAMP production; experiment: cAMP assay in HASMCs; type: cell-based, human; details: pertussis toxin 18 h, 1 μg/ml; 306±23 fold without PTX
# Description: Isolation and culture of HASMC. Human lungs were received from the National Disease Research Interchange (Philadelphia, PA, USA) and from the International Institute for the Advancement of Medicine (Edison, NJ, USA) and HASM cells were derived from the tracheas. […] Culture of HASM cells was conducted as described previously (Panettieri et al., 1989a). Briefly, cells were cultured in Ham's F-12 medium supplemented with 100 U mL^−1 penicillin, 0.1 mg mL^−1, streptomycin, […] amphotericin B and 10% FBS. Medium was replaced every 72 hours. HASM cells were only used during subculture passages 1-4 due to the strong expression of native contractile proteins (Panettieri et al., 1989b). In pertussis toxin studies, cells were treated with 1 μg/ml of pertussis toxin for 18 hours. All pharmacologic inhibitors were used with DMSO as the vehicle at a final concentration of 0.1% and were used to treat HASMC 30 minutes prior to agonist stimulation.
# cAMP Assay. HASMCs were seeded in a 24-well plate until about 80% confluent and serum-deprived overnight. Cells were stimulated and lysed using cAMP-Screen System ELISA from Applied Biosystems (Bedford, MA, USA). Experiment was conducted according to manufacturer's protocol.
# [3] = system: human precision-cut lung slices (hPCLS); experiment: hPCLS airway dilation assay; type: cell-based
compound,measurement,setting,value
pertussis toxin,effect on carbachol-induced AKT phosphorylation compared to vehicle,"[1]; pertussis toxin 18 h, 1 μg/ml before carbachol 10 μM 10 min, vehicle 0.01% DMSO",little effect
same,isoproterenol-mediated cAMP elevation in the presence of carbachol (fold over basal),[2],461±37 fold
"COc1ccc(CC(C)NCC(O)c2ccc(O)c(NC=O)c2)cc1 (centres unmarked) [Formoterol, formoterol fumarate dihydrate]",EC50,"[3]; Homo sapiens, read-out: log EC50, reversal of carbachol-induced bronchoconstriction (converted)",501 nM
rhosin,carbachol-induced phosphorylation of AKT (fold over basal),"[1]; primary HASMCs, rhosin 10 μM 30 minutes, carbachol 10 μM 10 min, vehicle 4.4±0.8 fold",0.6±0.1 fold
same,bronchodilation of carbachol-preconstricted hPCLS,"[3]; increasing doses of rhosin after carbachol, compared with formoterol",comparable to formoterol; also recorded: reverses carbachol-induced bronchoconstriction in a dose-dependent manner

# Source: patent publication US20250057836A1, “Compositions And Methods Targeting G12 Signaling For Bronchodilator Therapy” (Rutgers, The State University of New Jersey, priority 2017, published 2025)
